Measurements taken from patent US20120129189A1, “Methods of Controlling Cell Proliferation” (priority 2009, published 2012).
Peptide text beside a SMILES is read from it. * marks the point of attachment. Cbz = O=C(OCc1ccccc1)*

Key:
active β-Catenin in ESCs = experiment: Western analysis of active β-Catenin in ESCs; format: cell-based
Description: Gapdh antibody was used as a loading control. h, head; ht, heart tube; Con, control; N1 KD, Notch1 siRNA; N1-4 KD, Notch 1-4 siRNA.

[1] = tested on: β-Catenin/TCF activity in ESCs; experiment: β-Catenin/TCF-directed luciferase reporter (Topflash) in ESCs; format: cell-based; conditions: increasing doses of DAPT, 72-96 h
Description: For Notch, RBP-J or Numb/Numbl knockdown experiments, Notch1-4, RBPSUH or Numb/Numbl On-TARGETplus SMARTpool (Dharmacon L-041110, L-044202, L-047867, L-046498, L-007772 or L-046935/L-046983) or Block-iT Alexa Fluor Red (46-5, 318, Invitrogen) was used at concentrations of 50, 100, or 200 nM for cell transfection. Tethered and truncated forms of Notch1 constructs were kindly provided by Drs. R. Kopan (Washington University, St. Louis, Mo.) and M. Nakafuku (Cincinnati Children's Hospital, Cincinnati, Ohio), respectively. Cells were transfected with Lipofectamine LTX (Invitrogen) or Lipofectamine 2000 (Invitrogen) in single-cell suspensions. […] Real-time quantitative PCR data were normalized and standardized with SDS2.2 software. […]
FIGS. 1A-F. Notch Negatively Regulates Active β-Catenin in Stem Cells Independently of RBP-J (A) Western analysis of ESCs transfected with control or Notch1 (N1) siRNA (50 or 100 nM) with active β-Catenin (Act β-Cat) antibody that detects N-terminal-dephosphorylated β-Catenin. (B and C) Relative β-Catenin/TCF-directed luciferase activity in ESCs (B) or neural stem cells (NSCs) (C) transfected with control siRNA or siRNA against Notch1 or Notch1-4. β-Catenin/TCF activity was measured by co-transfecting cells with a luciferase reporter downstream of multiple TCF binding sites (Topflash). […]

ESCs = experiment: Relative number of ESCs after treatment; format: cell-based; conditions: DAPT 50 or 100 μM, 48 h
Excerpt: (§1) FIGS. 3A-I. Membrane-Bound Notch Negatively Regulates Active β-Catenin Levels in Stem Cells (A) Schematic representation of wildtype Notch1 and cleavage site-mutated tethered forms of Notch1 (V1744K and V1774L). […] (C) BIO-treated ESCs transfected with WT or mutant Notch1 constructs and, immunoprecipitated (IP) with anti-Myc antibody and immunoblotted (IB) with β-Catenin antibody. Notch1 expression was detected with anti-Myc antibody. Arrowheads indicate cleaved Notch1. (D) Western analysis of active β-Catenin in ESCs transfected with WT or mutant Notch1 constructs. (E) Relative β-Catenin/TCF activity of ESCs and NSCs treated with increasing doses of DAPT for 72-96 h. (F) Western analysis of active β-Catenin in ESCs, NSCs, and bone marrow mesenchymal stem cells (MSCs) treated with increasing doses (0, 25, 50 or 100 μM) of DAPT for 72-96 h. (G) Relative number of ESCs after treatment with DAPT (50 or 100 μM) for 48 h. (H) Relative expression of Cyclin D1 mRNA in ESCs transfected with control (LacZ) or tethered Notch (V1774L) and cultured for 72 h. (I) Relative expression of Brachyury, Nestin and Sox17 mRNA in ESCs maintained without LIF for 72 h after transfection with control (LacZ) or tethered Notch (V1774L); *, P<0.01; NS, not significant. […] Con, control.

[2] = tested on: hESCs, NSCs and bone marrow mesenchymal stem cells; experiment: β-Catenin activity and protein in other stem cells; format: cell-based; conditions: increasing doses of DAPT, 72-96 h
Excerpt: as §1

β-Catenin in SW480 cells = experiment: Western analysis of β-Catenin in SW480 cells; format: cell-based, human
Description: (§2) Cells were scraped off the 100-mm dish and lysed in 1 ml of lysis buffer (1 mM PMSF, 1 mM EDTA, 10 mM Tris-HCl, 0.1% Triton X100, 1× Complete Protease Inhibitor Cocktail (Roche) in PBS). The lysates were spun down, and 1 μg of anti-c-Myc antibody (Sigma, M4439) or anti-Flag antibody (Sigma, F1804) was added to 500 μl of the supernatant. A 50-50 mixture of protein A Sepharose (Amersham) and protein G Sepharose (Amersham) was added to the lysate/antibody mixture for immunoprecipitation for 1 hour. The resulting outputs were washed with lysis buffer and subjected to western blot analysis. For western blotting, samples were analyzed using antibodies against active-β-Catenin (anti-ABC, Millipore), phospho-β-Catenin (Ser33/37/Thr41, Cell Signaling), β-Catenin (sc-1496, Santa Cruz Biotechnology) and Gapdh (Santa Cruz Biotechnology).
(§3) FIGS. 5A-I. γ-Secretase Inhibitors (GSIs) Suppress Expansion of Human Colon Cancer Cells by Blocking Notch Cleavage (A) Western analysis of active β-Catenin in SW480 colon cancer cells transfected with control or siRNA against Notch1-4 (100 nM each). (B) Relative β-Catenin/TCF activity of SW480 cells treated with increasing doses of DAPT for 96 h. (C) Western analysis of β-Catenin levels in SW480 and a second colon cancer cell line, HT-29, treated with increasing doses (0, 25, 50 or 100 μM) of DAPT for 96 h. (D) Relative number of SW480 cells treated with DAPT (50 or 100 μM) for 72 h. (E) Western analysis of active β-Catenin levels in SW480 cells with increasing DAPT in the presence or absence of proteasome inhibitor (PI) MG-132 (5 nM) for 72 h. […] (F) Notch/RBP-J activity of SW480 cells treated with increasing doses of Ibuprofen. Notch/RBP-J activity was measured by transfecting cells with a luciferase reporter downstream of multiple RBP-J sites. (G) Relative β-Catenin/TCF activity of SW480 cells treated with Ibuprofen for 72 h. (H) Western analysis of active β-Catenin in SW480 cells treated with Ibuprofen for 72 h. (I) Western analysis of active β-Catenin in SW480 cells transfected with Notch1-4 (100 nM each) siRNA and treated with or without ibuprofen. Gapdh antibody was used as a loading control. All luciferase values were normalized to Renilla activity and represent n=4. *, P<0.01. Con, control; N1-4 KD, Notch 1-4 siRNA.

β-Catenin in HT-29 cells = experiment: Western analysis of β-Catenin in HT-29 cells; format: cell-based, human; conditions: HT-29, DAPT 0, 25, 50 or 100 μM, 96 h
Description: as §2
(§4) FIGS. 5A-I. γ-Secretase Inhibitors (GSIs) Suppress Expansion of Human Colon Cancer Cells by Blocking Notch Cleavage (A) Western analysis of active β-Catenin in SW480 colon cancer cells transfected with control or siRNA against Notch1-4 (100 nM each). (B) Relative β-Catenin/TCF activity of SW480 cells treated with increasing doses of DAPT for 96 h. […] Notch/RBP-J activity was measured by transfecting cells with a luciferase reporter downstream of multiple RBP-J sites. […]

[3] = tested on: β-Catenin/TCF activity in SW480 cells; experiment: β-Catenin/TCF luciferase activity in SW480 cells; format: cell-based, human
Description: (§5) For Notch, RBP-J or Numb/Numbl knockdown experiments, Notch1-4, RBPSUH or Numb/Numbl On-TARGETplus SMARTpool (Dharmacon L-041110, L-044202, L-047867, L-046498, L-007772 or L-046935/L-046983) or Block-iT Alexa Fluor Red (46-5, 318, Invitrogen) was used at concentrations of 50, 100, or 200 nM for cell transfection. Tethered and truncated forms of Notch1 constructs were kindly provided by Drs. R. Kopan (Washington University, St. Louis, Mo.) and M. Nakafuku (Cincinnati Children's Hospital, Cincinnati, Ohio), respectively. Cells were transfected with Lipofectamine LTX (Invitrogen) or Lipofectamine 2000 (Invitrogen) in single-cell suspensions. For gene expression analysis, qPCR was performed with the ABI Prism system (7900HT, Applied Biosystems) with the following primers: β-Catenin (Mm01350394_m1), Cyclin D1 (Mm00432359_m1), Gapdh (Mm99999915_g1). All samples were run at least in triplicate. Real-time quantitative PCR data were normalized and standardized with SDS2.2 software. […]
as §4, with “each).” for “each). (B) Relative β-Catenin/TCF activity of SW480 cells treated with increasing doses of DAPT for 96 h.”

SW480 cells = experiment: Relative number of SW480 cells (cell expansion); format: cell-based, human; conditions: SW480 (FIG. 5D), DAPT 50 or 100 μM, 72 h; text names SW480 and HT-29
Description: as §3, with “Con, control; N1-4 KD, Notch 1-4 siRNA.” left out

[4] = tested on: Notch/RBP-J activity in SW480 cells; experiment: Notch/RBP-J-dependent luciferase activity in SW480 cells; format: cell-based, human; conditions: SW480, increasing doses of Ibuprofen
Description: as §5
as §4, with “each).” for “each). (B) Relative β-Catenin/TCF activity of SW480 cells treated with increasing doses of DAPT for 96 h.”

O=C1Nc2cc(Br)ccc2/C1=C1/Nc2ccccc2/C1=N\O [BIO, 6-bromoindirubin-3′-oxime]
active β-Catenin levels (active β-Catenin in ESCs; BIO 2 μM): greatly increases

C[C@H](NC(=O)Cc1cc(F)cc(F)c1)C(=O)N[C@H](C(=O)OC(C)(C)C)c1ccccc1 [DAPT, N—[N-(3,5-difluorophenacetyl)-L-alanyl]-S-phenylglycine t-butyl ester]
active β-Catenin activity (relative β-Catenin/TCF activity) [1]: significant reduction
active β-Catenin protein levels (active β-Catenin in ESCs; DAPT 0, 25, 50 or 100 μM, 72-96 h): significant reduction
cell numbers (ESCs): significant decrease
active β-Catenin activity and protein levels [2]: trend was also observed
β-Catenin protein (β-Catenin in SW480 cells; SW480, DAPT 0, 25, 50 or 100 μM, 96 h): dose-dependent decrease
β-Catenin protein (β-Catenin in HT-29 cells): dose-dependent decrease
TCF/β-Catenin-dependent transcriptional activity ([3]; SW480 (FIG. 5B), increasing doses of DAPT, 96 h, text names SW480 and HT-29): dose-dependent decrease
cell expansion (relative cell number) (SW480 cells): dose-dependent decrease

CC(C)Cc1ccc(C(C)C(=O)O)cc1 (centres unmarked) [Ibuprofen]
active β-Catenin protein (β-Catenin in SW480 cells; SW480, Ibuprofen, 72 h): lowered
reduction of β-Catenin protein levels after knockdown of Notch1-4 (β-Catenin in SW480 cells; SW480 transfected with Notch1-4 siRNA (100 nM each), with or without ibuprofen): not observed
active β-Catenin transcriptional activity ([3]; SW480, Ibuprofen, 72 h): lowered
canonical Notch transcriptional activity (Notch/RBP-J-dependent luciferase activity) [4]: dose-dependent decrease

CC(C)C[C@@H](C=O)NC(=O)[C@H](CC(C)C)NC(=O)[C@H](CC(C)C)NC(=O)OCc1ccccc1 [MG-132] (Cbz-Leu-Leu-Leu-aldehyde)
active β-Catenin levels (β-Catenin in SW480 cells; SW480, proteasome inhibitor MG-132 (5 nM), 72 h): higher levels of β-Catenin
